Consider 2 compounds from patent publication EP0428132A1, “Pradimicin derivatives” (Bristol-Myers Squibb Company, priority 1989, dated 1991).

Structures can show the parent of a compound that is named as a salt.

Test [1] relates to Candida albicans A25578. Kind of test: In vitro antifungal activity, serial agar dilution method (Table 1a). In kind it is cell-based. The note with it: A25578, YM agar (pH 7.0, Difco), 30°C for 2 days (yeast) or 4 days (filamentous fungi), read-out: MICs, Candida albicans A25578. On the procedure:
(§1) The inoculum size was adjusted to 10⁶ cells/ml, and a volume of approximately 0.003 ml of fungal suspension was applied to the surface of the antibiotic containing agar plates with a multiinoculator. After incubation, the lowest concentration of antibiotic causing virtually complete inhibition of fungal growth was determined as the minimum inhibitory concentration (MIC).

For test [2], the system named is Candida albicans A9540. Described as above. In kind it is cell-based. Particulars: A9540, YM agar (pH 7.0, Difco), 30°C for 2 days (yeast) or 4 days (filamentous fungi), read-out: MICs, Candida albicans A9540. On the procedure:
as §1

The subject of test [3] is Candida paratropicalis A25825. The description is as above. Particulars: YM agar (pH 7.0, Difco); 30°C for 2 days (yeast) or 4 days (filamentous fungi); read-out: MICs, Candida paratropicalis A25825. It is filed as cell-based. On the procedure:
as §1

Test [4] has as its system Candida pseudotropicalis A25802. Described as above. It is filed as cell-based. The note with it: Kluyveromyces marxianus, YM agar (pH 7.0, Difco), 30°C for 2 days (yeast) or 4 days (filamentous fungi), read-out: MICs, Candida pseudotropicalis A25802. On the procedure: as §1
The subject of test [5] is Candida tropicalis A25812. The description is as above. In kind it is cell-based. The note with it: A25812, YM agar (pH 7.0, Difco), 30°C for 2 days (yeast) or 4 days (filamentous fungi), read-out: MICs, Candida tropicalis A25812. On the procedure:
as §1

The subject of test [6] is Cryptococcus neoformans A15053. The description is as above. It is filed as cell-based. Particulars: A15053, YM agar (pH 7.0, Difco), 30°C for 2 days (yeast) or 4 days (filamentous fungi), read-out: MICs, Cryptococcus neoformans A15053. On the procedure: as §1
Test [7] deals with Saccharomyces cerevisiae A25803. The test is described as above. It is filed as cell-based. The note with it: YM agar (pH 7.0, Difco), 30°C for 2 days (yeast) or 4 days (filamentous fungi), read-out: MICs, Saccharomyces cerevisiae A25803. On the procedure:
as §1

The subject of test [8] is M. gypseum A22810. Kind of test: In vitro antifungal activity, serial agar dilution method (Table 1a, footnote strain 1). In kind it is cell-based, Microsporum gypseum. Particulars: Nannizzia gypsea, strain per footnote **1, YM agar (pH 7.0, Difco), 30°C for 2 days (yeast) or 4 days (filamentous fungi), read-out: MICs, M. gypseum A22810. On the procedure:
as §1

Test [9] deals with T. rubrum A24195. Description: In vitro antifungal activity, serial agar dilution method (Table 1a, footnote strain 2). In kind it is cell-based. The note with it: Trichophyton rubrum, A24195, pH 7, read-out: MICs, T. rubrum A24195. On the procedure:
as §1

The subject of test [10] is T. mentagrophytes A22838. Description: In vitro antifungal activity, serial agar dilution method (Table 1a, footnote strain 3). It is filed as cell-based. The note with it: Trichophyton mentagrophytes, strain per footnote **3, YM agar (pH 7.0, Difco), 30°C for 2 days (yeast) or 4 days (filamentous fungi), read-out: MICs, T. mentagrophytes A22838. On the procedure: as §1

Test [11] has as its system M. canis A22494. Kind of test: In vitro antifungal activity, serial agar dilution method (Table 1a, footnote strain 6). It is filed as cell-based. Particulars: Microsporum canis, A22494, pH 7, read-out: MICs, M. canis A22494. On the procedure: as §1
In test [12] the test system is Candida tropicalis A25809. Description: In vitro antifungal activity, serial agar dilution method (Table 1a). The note with it: YM agar (pH 7.0, Difco), 30°C for 2 days (yeast) or 4 days (filamentous fungi), read-out: MICs, Candida tropicalis A25809. In kind it is cell-based. On the procedure: as §1

`COc1cc(O)c2c(c1)C(=O)c1c(cc3c(c1O)-c1c(cc(C)c(C(=O)N[C@H](C)C(=O)O)c1O)[C@H](O[C@@H]1O[C@H](C)[C@H](N(C)C(=O)[C@@H](N)CCC(=O)O)[C@H](O)[C@H]1O)[C@H]3O)C2=O` [Ex. 20, N-(L-glutamyl) pradimicin B formate salt]: the MIC in [1] was 12.5 µg/mL; in test [2], 25 µg/mL; in test [3] it was 25 µg/mL; in [4] it was 6.3 µg/mL; in test [5], 25 µg/mL; in [6], 50 µg/mL. Further, the MIC in test [7] was determined as 6.3 µg/mL; in [8], 12.5 µg/mL; in test [9], 12.5 µg/mL; in test [10], 12.5 µg/mL; in test [11], 12.5 µg/mL.

Turning to `COc1cc(O)c2c(c1)C(=O)c1c(cc3c(c1O)-c1c(cc(C)c(C(=O)N[C@H](C)C(=O)O)c1O)[C@H](O[C@@H]1O[C@H](C)[C@H](N(C)C(=O)CN)[C@H](O)[C@H]1O)[C@H]3O)C2=O` [Ex. 14, N-(glycyl) pradimicin B formate salt], the MIC in [1] is 3.2 µg/mL; in test [2], 3.2 µg/mL; in test [3], 3.2 µg/mL; in test [4], 1.6 µg/mL; in test [12], 3.2 µg/mL; in [5], 3.2 µg/mL. Further, the MIC in [6] was 1.6 µg/mL; in [7], 1.6 µg/mL; in [8] it was 3.2 µg/mL; in test [9], 1.6 µg/mL; in test [10], 1.6 µg/mL.
